Where two headings read alike, the source gives them in different places. Values belong to the molecule of their own block, whether it stands above or below them.
Tests used:
[1] = test system: Human oral epidermoid carcinoma KB cells; assay: Cell growth inhibition assay (methylene blue dye), KB cells; format: cell-based
Protocol: (§1) Anticancer activities of the aryl substituted sulfonamide compounds synthesized in the above examples were evaluated by testing their inhibitory effects on mammalian cancer cell growth.
(§2) Human oral epidermoid carcinoma KB cells, non small cell lung carcinoma H460 cells, colorectal carcinoma HT29 cells, and stomach carcinoma MKN45 cells were maintained in RPMI-1640 medium supplied with 5% fetal bovine serum. The cells were treated with the test compound at various concentrations for 72 h.

[2] = test system: non small cell lung carcinoma H460 cells; assay: Cell growth inhibition assay (methylene blue dye), H460 cells; format: cell-based; conditions: Homo sapiens, NCI-H460, 72 h, read-out: Cell type (IC50 ± SD, nM) H460 (lung)
Protocol: as §1, §2

[3] = test system: stomach carcinoma MKN45 cells; assay: Cell growth inhibition assay (methylene blue dye), MKN45 cells; format: cell-based; conditions: Homo sapiens, MKN-45, 72 h, read-out: Cell type (IC50 ± SD, nM) MKN45 (stomach)
Protocol: as §1, §2

KB-VIN10 cells = assay: Cell growth inhibition assay on multidrug resistant KB-VIN10 cells; format: cell-based; conditions: Homo sapiens
Protocol: (§3) Cell in logarithmic phase were cultured at a density of 5000 cells/mL/well in a 24-well plate. KB-VIN10 cells were cultured in a medium free of test compound for 3 days prior to use. The cells were treated with the test compound at various concentrations for 72 h. The effect of the test compound on cell growth was evaluated using the methylene blue dye assay. […] KB-CPT100 and KB-CPT300 cells were generated by camptothecin-driven selection. […] (See Liou, J. P. et al J. Med. Chem. 2004, 47, 4247-4257 and Kuo, C. C. et al. Cancer Res. 2004, 64, 4621-4628.) Anticancer activities of the aryl substituted sulfonamide compounds synthesized in the above examples were evaluated by testing their inhibitory effects on these drug-resistant cell lines. Compound 24 was tested in this assay.

KB-TAX50 cells = assay: Cell growth inhibition assay on drug-resistant KB-TAX50 cells; format: cell-based; conditions: Homo sapiens; KB-TAX50, Paclitaxel resistance
Protocol: as §3, with “dye assay. […] Compounds 16 and 24 were tested in this” for “dye”

[4] = test system: drug-resistant cell lines (KB-VIN10, KB-TAX50, KB-7D, KB-CPT100, KB-CPT300, KB-L30); assay: Growth inhibition on the drug-resistant KB cell lines (summary over the lines); format: cell-based; conditions: Homo sapiens, summary of Table 3, read-out: IC50 values on the drug-resistant cell lines (range over lines)
Protocol: as §3, with “dye assay. […] Compounds 16 and 24 were tested in this” for “dye”

VEGF165 = assay: VEGF production inhibition assay (ELISA); format: cell-based; conditions: Homo sapiens, medium of the HUVEC network assay
Protocol: (ii) VEGF Production Inhibition Assay
The medium of assay (i) above was collected. VEGF165 levels were measure by ELISA. In brief, a monoclonal antibody specific for VEGF was pre-coated onto a microplate. A control cell culture medium and the medium of assay (i) were added into the wells and any VEGF present was bound to the wells by the immobilized antibody. After washing away any unbound substances, an enzyme-linked polyclonal antibody specific for VEGF was added to the wells. Following a wash to remove any unbound antibody-enzyme reagent, a substrate solution was added to the wells and color developed in proportion to the amount of VEGF bound in the initial step. The color development was stopped and the intensity of the color was measured.

[5] = test system: colorectal carcinoma HT29 cells; assay: Cell growth inhibition assay, HT29 cells; format: cell-based; conditions: Homo sapiens, HT-29
Protocol: (§4) Human oral epidermoid carcinoma KB cells, non small cell lung carcinoma H460 cells, colorectal carcinoma HT29 cells, and stomach carcinoma MKN45 cells were maintained in RPMI-1640 medium supplied with 5% fetal bovine serum. The cells were treated with the test compound at various concentrations for 72 h. The effect of the test compound on cell growth was evaluated using a methylene blue dye assay similar to that described in Baguley et al., Anal Biochem, 1984, 139: 272-277. […] Compounds 16, 17, and 24 were tested on these three cell lines using methylene blue dye assay. ABT-751 was used as positive control (which was synthesized with the method described in Yoshino et al., J. Med. Chem. 1992, 35, 2496-2497; descriptions of ABT-751 can also be found in Koyanagi et al., Cancer Res. 1994, 54, 1702-1706; Yee et al., Cancer Res. 2005, 11, 6615-6624; and Mauer, et al., J. Thorac. Oncol. 2008, 3, 613-636).
(§5) Further, Compound 24 was tested on non-small-cell lung cancer A549 and H1299 cells, colorectal carcinoma HT29, and normal human umbilical vein endothelial cells (HUVECs).

[6] = test system: non-small-cell lung cancer H1299 cells; assay: Cell growth inhibition assay, H1299 cells; format: cell-based; conditions: Homo sapiens, NCI-H1299
Protocol: as §4, §5

[7] = test system: CD31-positive cells in tumor tissue (microvessel density); assay: Anti-vascular activity, CD31 immunofluorescence staining in tumor tissues; format: in vivo; design: dose or concentration left out as unconfirmed; conditions: tumor tissue from mice
Protocol: Anti-vascular activities of the aryl substituted sulfonamide compounds were evaluated by immunofluorescence staining in tumor tissues.
Rat anti-mouse CD31 antibodies were purchased from BD Biosciences. Tumor tissue samples were harvested from mice in both the control and test compound-treated groups. Frozen sections were fixed with acetone and chloroform. To block nonspecific proteins, each sample was incubated in 4.5% fish gelatin (BB International Co.) for 20 min. Expression of CD31 was detected in blood vessels using rat anti-mouse CD31 as the primary antibody and TexasRed (Jackson) labeled-goat anti-rat IgG antibody as the secondary antibody. The mean microvessel density (MVD) was determined by first counting and then averaging the number of CD31-positive cells in five random high power microscopic fields from different tumor samples.

KB-CPT100 cells = assay: Cell growth inhibition assay on drug-resistant KB-CPT100 cells; format: cell-based; conditions: Homo sapiens, KBCPT100; KB-CPT100, Camptothecin resistance
Protocol: as §3, with “dye assay. […] Compounds 16 and 24 were tested in this” for “dye”

KB-CPT300 cells = assay: Cell growth inhibition assay on drug-resistant KB-CPT300 cells; format: cell-based; conditions: Homo sapiens; KB-CPT300, Camptothecin resistance
Protocol: as §3, with “dye assay. […] Compounds 16 and 24 were tested in this” for “dye”

KB-7D cells = assay: Cell growth inhibition assay on drug-resistant KB-7D cells; format: cell-based; conditions: Homo sapiens, KB7D, Etoposide resistance
Protocol: as §3, with “dye assay. […] Compounds 16 and 24 were tested in this” for “dye”

KB-L30 cells = assay: Cell growth inhibition assay on drug-resistant KB-L30 cells; format: cell-based; conditions: Homo sapiens; KB-L30, BPR0L075 resistance
Protocol: as §3, with “dye assay. […] Compounds 16 and 24 were tested in this” for “dye”

[8] = test system: non-small-cell lung cancer A549 cells; assay: Cell growth inhibition assay, A549 cells; format: cell-based; conditions: Homo sapiens
Protocol: as §4, §5

[9] = test system: normal human umbilical vein endothelial cells (HUVECs); assay: Cell growth inhibition assay, normal HUVECs; format: cell-based; conditions: HUVEC
Protocol: as §4, §5

[10] = test system: Human umbilical vein endothelial cells (HUVECs); assay: Cellular network (tube) formation inhibition assay; format: cell-based
Protocol: (i) Cellular Network Formation Inhibition Assay
Each well of a 96-well plate was coated with an extracellular matrix containing collagen for 1 hr to allow the gel to solidify. Human umbilical vein endothelial cells (HUVECs) suspension was prepared at a concentration of 1×10^5 cells/mL in M199 medium supplemented with endothelial cell growth supplements with 20% FBS. Then, 100 μl of the cell suspension was added to each gel-coated well of the plate. Cells were incubated with or without a test compound for 18 hrs at 37° C. Without the test compound, a cellular network structure was fully developed after 12-18 hrs of incubation. The number of tubes formed was counted using light microscopy at 200× magnification.

[11] = KB cells, bands, read-out: IC50, inhibiting proliferation of KB cells (band)
[12] = KB cells, 72 h, methylene blue dye assay, read-out: Cell type (IC50 ± SD, nM) KB (oral)
[13] = KB-VIN10 (P-gp170/MDR overexpression), 72 h, methylene blue, read-out: IC50, growth inhibition of KB-VIN10 cells

IC50 [1, 11]: 100 to 700 nM | melting point: 179.4 to 180.5 °C
SMILES: COc1ccc(S(=O)(=O)N2CCc3cccc(-c4ccc(O)cc4)c32)cc1 [Compound 26, 4-[1-(4-methoxy-benzenesulfonyl)-2,3-dihydro-1H-indol-7-yl]-phenol]

IC50 [1, 11]: 1 to 99 nM | melting point: 195.1 to 197 °C
SMILES: COc1ccc(S(=O)(=O)N2CCc3cccc(-c4ccccn4)c32)cc1 [Compound 36, 1-(4-methoxy-benzenesulfonyl)-7-pyridin-2-yl-2,3-dihydro-1H-indole]

IC50 [2]: 29.5 ± 14.8 nM | IC50 [1, 12]: 31.1 ± 5.4 nM | IC50 [1, 11]: 1 to 99 nM | IC50 [3]: 17.2 ± 8.6 nM | melting point: 157.2 to 158.9 °C
SMILES: COc1ccc(S(=O)(=O)N2CCc3cccc(-c4ccc(C#N)cc4)c32)cc1 [Compound 17, 4-[1-(4-methoxy-benzenesulfonyl)-2,3-dihydro-1H-indol-7-yl]-benzonitrile]

IC50 [1, 11]: 100 to 700 nM | melting point: 176.3 to 177.4 °C
SMILES: COc1ccc(-c2cccc3c2N(S(=O)(=O)c2ccc(OC)cc2)CC3)cc1 [Compound 23, 1-(4-methoxy-benzenesulfonyl)-7-(4-methoxy-phenyl)-2,3-dihydro-1H-indole]

IC50 [1, 11]: 100 to 700 nM | melting point: 183.9 to 185.6 °C
SMILES: COc1ccc(S(=O)(=O)N2CCc3cccc(-c4ccc(N)cc4)c32)cc1 [Compound 20, 4-[1-(4-methoxy-benzenesulfonyl)-2,3-dihydro-1H-indol-7-yl]-phenylamine]

IC50 [1, 11]: 1 to 99 nM | melting point: 178.1 to 179.4 °C
SMILES: COc1ccc(S(=O)(=O)N2CCc3cccc(-c4ccc(F)cc4)c32)cc1 [Compound 28, 7-(4-fluoro-phenyl)-1-(4-methoxy-benzenesulfonyl)-2,3-dihydro-1H-indole]

IC50 [1, 11]: 100 to 700 nM | melting point: 127.7 to 129.1 °C
SMILES: COc1ccc(S(=O)(=O)N2CCc3cccc(-c4cccs4)c32)cc1 [Compound 30, 1-(4-methoxy-benzenesulfonyl)-7-thiophen-2-yl-2,3-dihydro-1H-indole]

IC50 [2]: 218 ± 4 nM | IC50 [1, 12]: 251 ± 65 nM | IC50 [3]: 166 ± 8 nM | IC50 (KB-VIN10 cells; [13]): 385 nM
SMILES: COc1ccc(S(=O)(=O)Nc2cccnc2Nc2ccc(O)cc2)cc1 [ABT-751, reference compound]

IC50 [1, 11]: 1 to 99 nM | melting point: 176.7 to 177.7 °C
SMILES: COc1ccc(S(=O)(=O)N2CCc3cccc(-c4ccco4)c32)cc1 [Compound 29, 7-furan-2-yl-1-(4-methoxy-benzenesulfonyl)-2,3-dihydro-1H-indole]

IC50 [1, 11]: 100 to 700 nM | melting point: 130.3 to 132.1 °C
SMILES: COc1ccc(S(=O)(=O)N2CCc3cccc(-c4ccc(C(=O)O)cc4)c32)cc1 [Compound 40, 4-[1-(4-methoxy-benzenesulfonyl)-2,3-dihydro-1H-indol-7-yl]-benzoic acid]

IC50 [1, 11]: 100 to 700 nM | melting point: 139.8 to 141.7 °C
SMILES: COc1ccc(S(=O)(=O)N2CCc3cccc(-c4ccc(F)nc4)c32)cc1 [Compound 25, 7-(6-fluoro-pyridin-3-yl)-1-(4-methoxy-benzenesulfonyl)-2,3-dihydro-1H-indole]

IC50 [1, 11]: 1 to 99 nM | melting point: 152 to 153 °C
SMILES: COc1ccc(S(=O)(=O)N2CCc3cccc(-c4ccc(C=O)cc4)c32)cc1 [Compound 38, 4-[1-(4-methoxy-benzenesulfonyl)-2,3-dihydro-1H-indol-7-yl]-benzaldehyde]

IC50 ([1]; KB cells, bound stated, read-out: IC50, inhibiting proliferation of KB cells (bound)): ≥ 4000 nM | melting point: 165 to 166 °C
SMILES: COc1ccc(S(=O)(=O)N2CCc3cccc(-c4ccc(CN(C)C)cc4)c32)cc1 [Compound 39, {4-[1-(4-methoxy-benzenesulfonyl)-2,3-dihydro-1H-indol-7-yl]-benzyl}-dimethyl-amine]

IC50 [1, 11]: 100 to 700 nM | melting point: 177.1 to 178.3 °C
SMILES: COc1ccc(S(=O)(=O)N2CCc3cccc(-c4ccc(Cl)cc4)c32)cc1 [Compound 33, 7-(4-chloro-phenyl)-1-(4-methoxy-benzenesulfonyl)-2,3-dihydro-1H-indole]

IC50 (KB-TAX50 cells): 188 ± 25.3 nM | IC50 [2]: 101 ± 8 nM | IC50 [4]: 90 to 250 nM | IC50 [1, 12]: 96 ± 14.1 nM | IC50 [1, 11]: 1 to 99 nM | IC50 [5]: 201 ± 13.9 nM | IC50 [3]: 69.5 ± 7.6 nM | IC50 [6]: 132 ± 13.7 nM | IC50 (KB-CPT100 cells): 95 ± 12.1 nM | IC50 (KB-CPT300 cells): 93 ± 15.7 nM | IC50 (KB-7D cells): 257 ± 26.6 nM | IC50 (KB-VIN10 cells; [13]): 106 nM | IC50 (KB-VIN10 cells; KB-VIN10, Vincristine resistance, read-out: Growth Inhibition (IC50)): 106 ± 18 nM | IC50 (KB-L30 cells): 237 ± 26.6 nM | IC50 [8]: 150 ± 8.5 nM | melting point: 195.9 to 196.8 °C
SMILES: COc1ccc(S(=O)(=O)N2CCc3cccc(-c4ccncc4)c32)cc1 [Compound 24, 1-(4-methoxy-benzenesulfonyl)-7-pyridin-4-yl-2,3-dihydro-1H-indole]
inhibition at 0.5 µM (VEGF165): > 50% | IC50 ([1]; KB (Parental), Table 3, read-out: Growth Inhibition (IC50)): 96 ± 14.1 nM | decrease of vascular area compared to the blank control [7]: five-fold | IC50 [9]: 510 ± 22.2 nM | IC50 ([10]; Homo sapiens, HUVEC, 18 hrs, unit inferred): 500 nM | tube formation inhibition ([10]; at 1.5 (unit not given)): completely inhibited tube formation

Reference: patent US8119683B2, “Aryl substituted sulfonamide compounds and their use as anticancer agents” (Taipei Medical University, priority 2009, dated 2012)
